Data on 2 compounds can be found in patent US8030360B2, “Anti-wrinkle agent” (Kemphys Ltd., priority 2004, dated 2011).

Molecules are shown by their SMILES.

Data set [1] relates to Normal human keratinocyte. In words: Human keratinocyte growth (amount of DNA as index). Type of data set: cell-based. To be noted: amount of DNA as index of HK growth. As for the experimental part:
(§1) Normal human keratinocyte obtained from human chest skin (HK, Kurabo) was cultured, and the cells were added with RA or Am80 (0.01% in dimethyl sulfoxide) on the second day. The cells on the second to 13th day after the addition of the agents were used as samples. By using the amount of DNA as an index of HK growth, and by using compositional ratio (K1/K16) of differentiated keratin (k1; 68 kD) and proliferating keratin (K16; 48 kD) in one-dimension SDS-PAGE as an index of differentiation, differentiation suppression rate was determined as a value wherein the ratio of the indexes of each sample and control applied only with a solvent was subtracted from 1. […] IC50 was 10^−6 to 10^−7 M for RA, and 10^−9 M for Am80.

The test system of data set [2] is guinea pig skin. The data set is described as follows: Cumulative skin irritancy test of a retinoid on guinea pig skin. Type of data set: in vivo. As for the experimental part: (§2) Histological tests were conducted to study the irritancy of a retinoid on guinea pig skin and correlation between an irritancy threshold and a retinoid action threshold. Each of male guinea pigs of approximately in a weight of 600 g was applied once every day with 1, 5, 10, 50, or 100 ppm of retinoic acid (RA) or Am80 (4-[(5,6,7,8-tetrahydro-5,5,8,8-tetramethyl-2-naphthalenyl)carbamoyl]benzoic acid) as an ethanol solution on the dorsal skin (5 days a week). As a control, only the solvent (ethanol) was applied. The skin responses were evaluated according to the following 5-step criteria, and average values were calculated for each concentration of the drugs by using results obtained from three of the guinea pigs. • 0: No skin response was observed. • 1: Slight erythema was observed. • 2: Obvious erythema was observed. • 3: Strong erythema or slight edema/crust was observed. • 4: Obvious edema/crust, or more severe changes was observed.
(§3) Further, concentration dependencies of cumulative skin irritancy of RA and Am80 for the same application period were compared.

For data set [3], the system named is fibroblast cells. In words: Acceleration of EGF-dependent growth of fibroblast cells. Type of data set: cell-based. To be noted: low serum level. As for the experimental part:
The growth of fibroblast cells, being suspended under a low serum level, is dependent on growth factors, and the growth will start by the addition of EGF. The acceleration effects of RA and Am80 on the EGF-dependent growth were evaluated. RA gave the maximum effect (40% promotion) at 10^−6 M, and Am80 gave the maximum effect (30% promotion) at 10^−8 M. The acceleration effect of Am80 (10%) was also observed at 10^−10 Ml.

The conditions of data set [4]: reported in WO96/30009; cited from earlier work.
The test system of data set [5] is horny layer. The data set is described as follows: Horny layer turnover test (dansylchloride fluorescence). Type of data set: in vivo, guinea pig. To be noted: 50 ppm, 10 μl/1 cm diameter, once a day (FIG. 3). As to the method: Actions on turnover of horny layer were evaluated by using guinea pigs. Hartley albino male guinea pigs of approximately 750 g in weight, whose hair was removed using depilatory wax three days prior to the experiment, were applied occlusively with 5% Vaseline ointment of dansylchloride for 24 hours using a patch test Finn Chamber, and then the skin of the guinea pigs were wiped to remove the ointment. A portable fluorometer was used for irradiation with ultraviolet rays having maximum at around 338 nm, and the fluorescent intensity of the dansylchloride was measured. Simultaneously, fluorescent intensity of an area where dansylchloride was not applied (blank value) was measured in the same manner. After the measurement of the fluorescent intensities, 10 μl/1 cm diameter of RA and Am80 at 50 ppm concentration were applied once a day. During the measurement, skin irritancy was also determined according to the criteria indicated in Example 1. […] Cumulative skin irritancy was simultaneously evaluated according to the criteria in Example 1, and the results were obtained as shown in FIG. 4.

Data set [6] relates to skin grooves. The data set is described as follows: Planarization action on skin surface formation (skin groove), silicon resin replicas and image analysis. Type of data set: in vivo, hairless mice. To be noted: 0.01% in ethanol. As to the method:
Changes which appear on skin grooves after applications of RA and Am80 (each at a concentration of 0.01% in ethanol) were studied by using hairless mice (Skh-h4l, 16 weeks old, female, 5 mice per group). The applications were conducted once a day, 5 days a week, and for 30 days. As a control, only ethanol was applied. On the next day of the day of last application, replicas of skin surfaces were created by using a silicon resin, and various parameters that represent features of the shape of the skin surface were determined by using an apparatus for image analysis. […] Further, the decrease in KSD correlated to epidermal thickening.

The subject of data set [7] is guinea pig skin. The data set is described as follows: Histological findings of guinea pig skin at the end of the application period. Type of data set: in vivo. As for the experimental part: as §2, §3
Data set [8] concerns Normal human keratinocyte. The data set is described as follows: Human keratinocyte differentiation (K1/K16 keratin ratio, SDS-PAGE). Type of data set: cell-based. As to the method: as §1

Consider `CC1=C(/C=C/C(C)=C/C=C/C(C)=C/C(=O)O)C(C)(C)CCC1` [RA, retinoic acid, reference compound], for which the “IC50 of cell growth suppression” value in data set [1] is 10^−6 to 10^−7 M. Moreover, the “irritancy threshold (cumulative skin irritancy)” value in data set [2] (same application period, FIG. 2 (9th day of application)) is reported as “less than 5 ppm”. Also, the Emax at 1 µM in data set [3] (Fibroblast, at 10^−6 M, read-out: maximum effect on EGF-dependent growth (promotion)) was 40%.
For the compound `CC1(C)CCC(C)(C)c2cc(NC(=O)c3ccc(C(=O)O)cc3)ccc21` [Am80, 4-[(5,6,7,8-tetrahydro-5,5,8,8-tetramethyl-2-naphthalenyl)carbamoyl]benzoic acid], the “effect on dermatopathy caused by rays of sunlight” value in data set [4] is “ineffective”. In data set [5], the “action on horny cell layer turnover” value is “almost no effect”. The concentration for half-maximal inhibition (IC50) in data set [1] (Homo sapiens, Keratinocyte, read-out: IC50 of cell growth suppression) amounted to 1 nM. Further, the skin responses entry in data set [2] (10 ppm or less, during this period (FIG. 2)) is listed as “no skin responses”. Moreover, the “skin response compared with retinoic acid” value in data set [2] (RA and Am80 at the same concentration (FIG. 1)) was “much weaker skin response than retinoic acid and induces extremely slow skin response”. Also, the epidermal thickening entry in data set [6] (for 30 days (FIG. 6)) is given as “obvious changes”. For the same compound, the “planarization changes of skin surface on replicas” value in data set [6] (once a day, 5 days a week, for 30 days) is “The same action was observed”. Moreover, the “skin thickening and inflammatory changes compared with RA” value in data set [7] is “more slight skin thickening and inflammatory changes even when applied at 10 times higher concentration”. Also, the “differentiation suppression rates as compared to that by RA” value in data set [8] (Am80 versus RA) was 1.3 to 1.7 times. In data set [8] (K1/K16 ratio as index of differentiation), the “cell differentiation suppression action compared with RA” value was “stronger than that of RA”. The “concentration at which cell differentiation suppression action is also observed” value in data set [8] (as low as) was 10^−8 to 10^−10 M. In data set [3] (Fibroblast, at 10^−8 M, read-out: maximum effect on EGF-dependent growth (promotion)), the Emax at 0.01 µM was 30%. The “acceleration effect on EGF-dependent growth” value in data set [3] (at 10^−10 Ml) was found to be 10%.
